Data published in patent US7579468B2, “Methods of modulating neurotrophin-mediated activity” (PainCeptor Pharma Corporation, priority 2005, dated 2009).

System: HEK_TrkA: TrkA alone (human TrkA)
Assay: 125I-NGF binding displacement in HEK_TrkA cells
Details: individual experiment
Description: All cells were incubated at 37° C. in 5% CO2. PC12 cells were maintained in RPMI-1640 medium supplemented with 10% fetal bovine serum (FBS). A875 human melanoma cells were maintained in DMEM with 10% FBS. HEK 293 cells were stably transfected with human TrkA plasmid (see below) and maintained in DMEM with 10% FBS and G418 (600 μg/mL) for selection.
Expression of human TrkA in HEK cells was achieved by transfecting the cells with the TrkA expression vector using Lipofectamine (Invitrogen) reagent. HEK cells were plated in 100 mm Petri dishes at a concentration of 10^6 cells per dish. The next day, a solution of DNA diluted in 1 mL OptiMEM (Invitrogen) per dish was prepared and incubated for 15 min at room temperature. […]
NGF binding was evaluated using methods familiar to those who are skilled in the art. […] Non-specific binding was determined for reference by incubating ^125I-NGF with an excess of non-radioactive NGF in the absence of compound. Following a two-hour incubation period at 4° C., ^125I-NGF bound to the cells was quantified in a gamma radiation counter following separation from unbound NGF by filtration or centrifugation through glycerol (10% in HKR). Inhibition of binding was calculated as a percent of the specific binding (calculated as the differential between ^125I-NGF binding in the absence and presence of an excess of non-radioactive NGF without compound). […]

For `CC(=O)Nc1cc2c3c(cc(NC(C)=O)cc3c1)C(=O)N(CCCC(=O)O)C2=O` [Compound 11, 4-(5,8-Bis-acetylamino-1,3-dioxo-1H,3H-benzo[de]isoquinolin-2-yl)-butyric acid], the “NGF binding displacement, dose-response curve” value was “effectively blocks NGF binding to TrkA”.
